Among the data in PubChem BioAssay AID1259411 (Chemical Carcinogenesis Research Information System (CCRIS), 2018) are carcinogen call values, retold here.

Active and inactive are the calls of the source. The rule behind the calls is not given here.

For this data set, the system named is rodent carcinogenicity bioassays, tumor incidence. The experiment in a line: CCRIS carcinogenicity studies. The procedure, abridged: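 NCI-built, expert-reviewed records of carcinogenicity and related test outcomes (mutagenicity, tumor promotion/inhibition) compiled from published and report sources, historical span 1985-2011, not updated.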
Where [1] appears, read: Species: HAMSTER, Strain/Sex: SYRIAN/MALE, Route: SUBCUTANEOUS IMPLANT, Dose: 0, 20 MG IN PELLETS IMPLANTED EVERY 2.5 MO FOR 9 MO (STUDY DURATION: 9 MO), Tumor Site: Type of Lesion: KIDNEY: TUMOR.

For the compound `CN(C)c1ccc(C(c2ccccc2)c2ccc(N(C)C)cc2)cc1`, the carcinogen call by setting is: (Species: MOUSE, Strain/Sex: B6C3F1/FEMALE, Route: ORAL (DIET), Dose: 0, 91, 204, 408 PPM IN DIET FOR 2 YRS, Dose: 0, 91, 204, 408 PPM IN DIET FOR 2 YRS, Tumor Site: Type of Lesion: LIVER: HEPATOCELLULAR ADENOMA OR CARCINOMA) “active; positive; incidence of tumors was statistically significant”; (Species: RAT, Strain/Sex: F344/N/FEMALE, Route: DIET, Dose: 0, 91, 272, 543 PPM IN DIET FOR 2 YRS, Dose: 0, 91, 272, 543 PPM IN DIET FOR 2 YRS, Tumor Site: Type of Lesion: LIVER: HEPATOCELLULAR ADENOMA, THYROID: FOLLICULAR CELL ADENOMA OR CARCINOMA) “equivocal; none of the tumor incidences reached statistical significance; for th”; (Species: RAT, Strain/Sex: F344/N/MALE, Route: ORAL (DIET), Dose: 0, 91, 272, 543 PPM IN DIET FOR 2 YRS, Dose: 0, 91, 272, 543 PPM IN DIET FOR 2 YRS, Tumor Site: Type of Lesion: TESTIS: INTERSTITIAL CELL ADENOMA, THYROID: FOLLICULAR CELL ADENOMA OR CARCINOMA) “equivocal; thyroid tumors did not reach statistical significance”.

In the case of `O=C(OC[C@@H]1O[C@H](OC(=O)c2cc(O)c(O)c(OC(=O)c3cc(O)c(O)c(O)c3)c2)[C@@H](OC(=O)c2cc(O)c(O)c(OC(=O)c3cc(O)c(O)c(O)c3)c2)[C@H](OC(=O)c2cc(O)c(O)c(OC(=O)c3cc(O)c(O)c(O)c3)c2)[C@H]1OC(=O)c1cc(O)c(O)c(OC(=O)c2cc(O)c(O)c(O)c2)c1)c1cc(O)c(O)c(OC(=O)c2cc(O)c(O)c(O)c2)c1`, the carcinogen call reads like this: (Species: MOUSE, Route: SUBCUTANEOUS, Tumor Site: Type of Lesion: LIVER, INJECTION SITE) “active; positive”; (Species: RAT, Route: SUBCUTANEOUS, Tumor Site: Type of Lesion: LIVER) “active; positive”; (Species: RAT, Strain/Sex: F344/FEMALE, Route: ORAL, Dose: 0, 0.25, 0.5% IN DISTILLED WATER AS DRINKING WATER FOR 2 YR (STUDY DURATION: 114 WK), Dose: 0, 0.25, 0.5% IN DISTILLED WATER AS DRINKING WATER FOR 2 YR (STUDY DURATION: 114 WK)) “inactive; negative”; (Species: RAT, Strain/Sex: F344/MALE, Route: ORAL, Dose: 0, 0.25, 0.5% IN DISTILLED WATER AS DRINKING WATER FOR 2 YR (STUDY DURATION: 114 WK), Dose: 0, 0.25, 0.5% IN DISTILLED WATER AS DRINKING WATER FOR 2 YR (STUDY DURATION: 114 WK)) “inactive; negative”.

`OCl`: the carcinogen call by setting is: (Species: RAT, Strain/Sex: SPRAGUE-DAWLEY/FEMALE, Route: ORAL, Dose: 0, 100, 500, 750 MG/L IN DRINKING WATER FOR 104 WK (STUDY DURATION: LIFETIME), Dose: 0, 100, 500, 750 MG/L IN DRINKING WATER FOR 104 WK (STUDY DURATION: LIFETIME), Tumor Site: Type of Lesion: LYMPHATIC SYSTEM: LYMPHOMA OR LEUKEMIA) “active; positive”; (Species: RAT, Strain/Sex: SPRAGUE-DAWLEY/MALE, Route: ORAL, Dose: 0, 100, 500, 750 MG/L IN DRINKING WATER FOR 104 WK (STUDY DURATION: LIFETIME), Dose: 0, 100, 500, 750 MG/L IN DRINKING WATER FOR 104 WK (STUDY DURATION: LIFETIME)) “inactive; negative”.

Take `CC(C)[C@@H]1CC[C@@H](C)C[C@H]1O`: the carcinogen call is, setting by setting: (Species: MOUSE, Strain/Sex: B6C3F1/FEMALE, Route: ORAL, Dose: 0, 2000, 4000 PPM IN DIET, Dose: 0, 2000, 4000 PPM IN DIET) “inactive; negative”; (Species: MOUSE, Strain/Sex: B6C3F1/MALE, Route: ORAL, Dose: 0, 2000, 4000 PPM IN DIET, Dose: 0, 2000, 4000 PPM IN DIET) “inactive; negative”; (Species: RAT, Strain/Sex: F344/FEMALE, Route: ORAL, Dose: 0, 3750, 7500 PPM IN DIET, Dose: 0, 3750, 7500 PPM IN DIET) “inactive; negative”; (Species: RAT, Strain/Sex: F344/MALE, Route: ORAL, Dose: 0, 3750, 7500 PPM IN DIET, Dose: 0, 3750, 7500 PPM IN DIET) “inactive; negative”.

Take `[O]=[Co]`: the carcinogen call is, setting by setting: (Species: RAT, Strain/Sex: SPRAGUE-DAWLEY/FEMALE, Route: INTRATRACHEAL, Dose: 0, 2, 10 MG/KG EVERY 14 D FOR TOTAL DOSES OF 0, 78, 390 MG/KG (STUDY DURATION: 2 YR), Dose: 0, 2, 10 MG/KG EVERY 14 D FOR TOTAL DOSES OF 0, 78, 390 MG/KG (STUDY DURATION: 2 YR)) “inactive; negative”; (Species: RAT, Strain/Sex: SPRAGUE-DAWLEY/MALE,FEMALE, Route: INTRAPERITONEAL, Dose: 0, 200 MG/KG EVERY 2 MO FOR TOTAL DOSES OF 0, 600 MG/KG, Dose: 0, 200 MG/KG EVERY 2 MO FOR TOTAL DOSES OF 0, 600 MG/KG, Tumor Site: Type of Lesion: PERITONEUM: TUMORS) “active; positive”; (Species: RAT, Strain/Sex: SPRAGUE-DAWLEY/MALE, Route: INTRATRACHEAL, Dose: 0, 2, 10 MG/KG EVERY 14 D FOR TOTAL DOSES OF 0, 78, 390 MG/KG (STUDY DURATION: 2 YR), Dose: 0, 2, 10 MG/KG EVERY 14 D FOR TOTAL DOSES OF 0, 78, 390 MG/KG (STUDY DURATION: 2 YR), Tumor Site: Type of Lesion: LUNG: TUMOR) “active; positive”; (Species: RAT, Strain/Sex: SPRAGUE-DAWLEY/MALE, Route: SUBCUTANEOUS, Dose: 0, 2 MG/KG 5/WK FOR TOTAL DOSES OF 0, 1000 MG/KG (STUDY DURATION: 2 YR), Dose: 0, 2 MG/KG 5/WK FOR TOTAL DOSES OF 0, 1000 MG/KG (STUDY DURATION: 2 YR), Tumor Site: Type of Lesion: SUBCUTANEOUS TISSUE: TUMORS) “active; positive”; (Species: RAT, Strain/Sex: SPRAGUE-DAWLEY/MALE, Route: SUBCUTANEOUS, Dose: 0, 10 MG/KG 1/WK FOR TOTAL DOSES OF 0, 1000 MG/KG (STUDY DURATION: 2 YR), Dose: 0, 10 MG/KG 1/WK FOR TOTAL DOSES OF 0, 1000 MG/KG (STUDY DURATION: 2 YR), Tumor Site: Type of Lesion: SUBCUTANEOUS TISSUE: TUMORS) “active; positive”.

Take `C=CCN(N)CC=C`: the carcinogen call was “active; positive” (Species: MOUSE, Strain/Sex: SWISS/FEMALE, Route: ORAL, Dose: 0.03125% IN DRINKING WATER FOR LIFE, Tumor Site: Type of Lesion: LUNG: ADENOMA, ADENOCARCINOMA) and “active; positive” (Species: MOUSE, Strain/Sex: SWISS/MALE, Route: ORAL, Dose: 0.03125% IN DRINKING WATER FOR LIFE, Tumor Site: Type of Lesion: LUNG: ADENOMA, ADENOCARCINOMA, FORESTOMACH: SQUAMOUS CELL PAPILLOMA, CARCINOMA).

With `CCOP(=S)(OCC)Oc1ccc2c(C)c(Cl)c(=O)oc2c1`, the carcinogen call was “inactive; negative” (Species: MOUSE, Strain/Sex: B6C3F1/FEMALE, Route: ORAL, Dose: 0, 10, 20 PPM IN DIET, Dose: 0, 10, 20 PPM IN DIET); “inactive; negative” (Species: MOUSE, Strain/Sex: B6C3F1/MALE, Route: ORAL, Dose: 0, 10, 20 PPM IN DIET, Dose: 0, 10, 20 PPM IN DIET); “inactive; negative” (Species: RAT, Strain/Sex: F344/FEMALE, Route: ORAL, Dose: 0, 10, 20 PPM IN DIET, Dose: 0, 10, 20 PPM IN DIET); “inactive; negative” (Species: RAT, Strain/Sex: F344/MALE, Route: ORAL, Dose: 0, 10, 20 PPM IN DIET, Dose: 0, 10, 20 PPM IN DIET); “inactive; negative. according to dpr evaluator; original data not presented. cholinesteras” (Species: Rat, Strain/Sex: Wistar/Female (50/group), Route: Oral, Dose: 0 (1% peanut oil), 1, 5, 25 ppm in diet for 24 mo, test material purity 99.2%, Dose: 0 (1% peanut oil), 1, 5, 25 ppm in diet for 24 mo, test material purity 99.2%); “inactive; negative. according to dpr evaluator; original data not presented. cholinesteras” (Species: Rat, Strain/Sex: Wistar/Male (50/group), Route: Oral, Dose: 0 (1% peanut oil), 1, 5, 25 ppm in diet for 24 mo, test material purity 99.2%, Dose: 0 (1% peanut oil), 1, 5, 25 ppm in diet for 24 mo, test material purity 99.2%).

Turning to `O=C(O)CO`, the carcinogen call runs as follows: (Species: Mouse, Strain/Sex: SKH-1/Female (18/Group), Route: Dermal, Dose: 0, 4, 10% administered as topical cream (pH 3.5) , 5 d/wk, 40 wk, animals held an additional 12 wk for study duration of, Tumor Site: Type of Lesion: Skin: Carcinoma in situ, squamous cell carcinoma, basal cell carcinoma) “inactive; negative. when synthetic solar light (ssl) at 0.3 and 0.6 the minimal erythema d”; (Species: Mouse, Strain/Sex: SKH-1/Male (18/Group), Route: Dermal, Dose: 0, 4, 10% administered as topical cream (pH 3.5) , 5 d/wk, 40 wk, animals held an additional 12 wk for study duration of, Tumor Site: Type of Lesion: Skin: Carcinoma in situ, squamous cell carcinoma, basal cell carcinoma) “inactive; negative. when synthetic solar light (ssl) at 0.3 and 0.6 the minimal erythema d”.

Turning to `CO[C@H]1C[C@]2(C)[C@@H](O)CC[C@H]2[C@@H]2CCc3cc(O)ccc3[C@H]21`, the carcinogen call under setting [1] was “active; positive”.

Regarding `CCC1C(c2ccc(O)cc2)=C(C)c2cc(O)ccc21` (stereo not given), the carcinogen call under setting [1] is “active; positive”.
